What all share (assay type): functional
Common to all, as to details: route intravenous

Assay [1] has as its system Mus musculus. The assay is described as follows: In vivo tumor response 3 hour after post i.v. injection at a dose of 5 mg/kg in DBA/2 mice having SMT/F tumor after 7 days.
Assay [2] relates to Mus musculus. The assay can be described thus: In vivo tumor response 3 hour after post i.v. injection at a dose of 5 mg/kg in DBA/2 mice having SMT/F tumor after 21 days.
Assay [3] relates to Mus musculus. The assay can be described thus: In vivo tumor response 3 hour after post i.v. injection at a dose of 5 mg/kg in DBA/2 mice having SMT/F tumor after 1-2 days.
Assay [4] has as its system Mus musculus. The assay can be described thus: In vivo tumor response 3 hour after post i.v. injection at a dose of 5 mg/kg in DBA/2 mice having SMT/F tumor after 30 days.

The text below walks through data of ChEMBL document CHEMBL1127890, “Syntheses of new bacteriochlorins and their antitumor activity” (1994).

Consider `CCOC(=O)C(N)CCCCN1C(=O)C2=C(C)c3cc4[nH]c(cc5[nH]c(cc6nc(c(c2n3)C1=O)[C@@H](CCC(=O)OC)[C@@H]6C)c(C)c5C=O)C(C)(O)C4(O)CC` (some centres undefined), for which the Tumor response in assay [1] came out at 100%; in assay [2], 20%; in assay [3], 100%; in assay [4] it was 20%.

`CCC1(O)c2cc3nc4c(c5nc(cc6[nH]c(cc([nH]2)C1(C)O)c(C=O)c6C)[C@@H](C)[C@@H]5CCC(=O)NC(CC(=O)OC(C)(C)C)C(=O)OC(C)(C)C)C(=O)OC(=O)C4=C3C` (some centres undefined): the Tumor response in assay [1] was 100%; in assay [2], 80%; in assay [3] it was 100%; in assay [4], 80%.

In assay [3], `CCC1(O)c2cc3nc4c(c5nc(cc6[nH]c(cc([nH]2)C1(C)O)c(C=O)c6C)[C@@H](C)[C@@H]5CCC(=O)OC)C(=O)OC(=O)C4=C3C` (some centres undefined) had a Tumor response of 0%.
